From ChEMBL document CHEMBL5120839, “Design, synthesis and antibacterial activity of novel pleuromutilin derivatives with thieno[2,3-d]pyrimidine substitution” (Eur J Med Chem, 2022)
In brackets after ≈: the same amount, converted by molar mass. Activity calls are given as the source filed them. The rule behind the calls is not given here.

What follows are molecules tested on Streptococcus agalactiae (assay: Antibacterial activity against Streptococcus agalactiae assessed as inhibition of bacterial growth incubated for 24 hrs by microbroth two-fold dilution method).
Assay type: functional

Row | Structure (SMILES) | MIC [µg/mL]
1 | C=C[C@]1(C)C[C@@H](OC(=O)CSc2nc(C)cc(N3CCN(CC)CC3)n2)[C@]2(C)[C@H](C)CC[C@]3(CCC(=O)[C@H]32)[C@@H](C)[C@@H]1O | 0.122 (≈ 0.204 µM)
2 | C=C[C@]1(C)C[C@@H](OC(=O)CSc2nc(N3CCCNCC3)c3ccsc3n2)[C@]2(C)[C@H](C)CC[C@]3(CCC(=O)[C@H]32)[C@@H](C)[C@@H]1O | 0.061 (≈ 0.0973 µM)
3 | C=C[C@]1(C)C[C@@H](OC(=O)CSc2nc(NCCO)c3c(C)csc3n2)[C@]2(C)[C@H](C)CC[C@]3(CCC(=O)[C@H]32)[C@@H](C)[C@@H]1O | 0.488 (≈ 0.811 µM)
4 | C=C[C@]1(C)C[C@@H](OC(=O)CSc2nc(N/N=C/c3ccc(O)c(Br)c3)c3ccsc3n2)[C@]2(C)[C@H](C)CC[C@]3(CCC(=O)[C@H]32)[C@@H](C)[C@@H]1O | 1.95 (≈ 2.63 µM)
5 | C=C[C@]1(C)C[C@@H](OC(=O)CSCCN(CC)CC)[C@]2(C)[C@H](C)CC[C@]3(CCC(=O)[C@H]32)[C@@H](C)[C@@H]1O [TIAMULIN] | 0.122 (≈ 0.247 µM)
6 | C=C[C@]1(C)C[C@@H](OC(=O)CSc2nc(N3CCC(N(C)C)CC3)c3ccsc3n2)[C@]2(C)[C@H](C)CC[C@]3(CCC(=O)[C@H]32)[C@@H](C)[C@@H]1O | 0.122 (≈ 0.186 µM)
7 | C=C[C@]1(C)C[C@@H](OC(=O)CSc2nc(N/N=C/c3ccc(F)cc3)c3ccsc3n2)[C@]2(C)[C@H](C)CC[C@]3(CCC(=O)[C@H]32)[C@@H](C)[C@@H]1O | 0.244 (≈ 0.367 µM)
8 | C=C[C@]1(C)C[C@@H](OC(=O)CSc2nccc(N3CCN(CC)CC3)n2)[C@]2(C)[C@H](C)CC[C@]3(CCC(=O)[C@H]32)[C@@H](C)[C@@H]1O | 0.122 (≈ 0.209 µM)
9 | C=C[C@]1(C)C[C@@H](OC(=O)CSc2nc(N/N=C/c3ccc(OC)cc3)c3ccsc3n2)[C@]2(C)[C@H](C)CC[C@]3(CCC(=O)[C@H]32)[C@@H](C)[C@@H]1O | 0.0305 (≈ 0.0451 µM)
10 | C=C[C@]1(C)C[C@@H](OC(=O)CSc2nc(N3CCOCC3)c3ccsc3n2)[C@]2(C)[C@H](C)CC[C@]3(CCC(=O)[C@H]32)[C@@H](C)[C@@H]1O | 0.061 (≈ 0.0994 µM)
11 | C=C[C@]1(C)C[C@@H](OC(=O)CSc2ncc(C)c(N3CCN(CC)CC3)n2)[C@]2(C)[C@H](C)CC[C@]3(CCC(=O)[C@H]32)[C@@H](C)[C@@H]1O | 0.244 (≈ 0.408 µM)
12 | C=C[C@]1(C)C[C@@H](OC(=O)CSc2nc(N/N=C/c3ccc(C(F)(F)F)cc3)c3ccsc3n2)[C@]2(C)[C@H](C)CC[C@]3(CCC(=O)[C@H]32)[C@@H](C)[C@@H]1O | 0.244 (≈ 0.341 µM)

The molecules below were run on Staphylococcus aureus (assay: Bactericidal activity against Staphylococcus aureus assessed as bacterial killing at 8 times MIC incubated up to 24 hrs by time kill assay).
Assay type: functional, organism-based

Row | Structure (SMILES) | Activity
13 | C=C[C@]1(C)C[C@@H](OC(=O)CSCCN(CC)CC)[C@]2(C)[C@H](C)CC[C@]3(CCC(=O)[C@H]32)[C@@H](C)[C@@H]1O [TIAMULIN] | Active

What follows are molecules tested on Staphylococcus aureus (assay: Antibacterial activity against Staphylococcus aureus assessed as diameter of the inhibition circle at 1 mg/ml incubated for 48 hrs).
Assay type: functional

Row | Structure (SMILES) | inhibition zone diameter [mm]
14 | C=C[C@]1(C)C[C@@H](OC(=O)CSc2nc(C)cc(N3CCN(CC)CC3)n2)[C@]2(C)[C@H](C)CC[C@]3(CCC(=O)[C@H]32)[C@@H](C)[C@@H]1O | 23.9
15 | C=C[C@]1(C)C[C@@H](OC(=O)CSc2nc(N3CCCNCC3)c3ccsc3n2)[C@]2(C)[C@H](C)CC[C@]3(CCC(=O)[C@H]32)[C@@H](C)[C@@H]1O | 26.2
16 | C=C[C@]1(C)C[C@@H](OC(=O)CSc2nc(NCCO)c3c(C)csc3n2)[C@]2(C)[C@H](C)CC[C@]3(CCC(=O)[C@H]32)[C@@H](C)[C@@H]1O | 25.9
17 | C=C[C@]1(C)C[C@@H](OC(=O)CSc2nc(N/N=C/c3ccc(O)c(Br)c3)c3ccsc3n2)[C@]2(C)[C@H](C)CC[C@]3(CCC(=O)[C@H]32)[C@@H](C)[C@@H]1O | 21
18 | C=C[C@]1(C)C[C@@H](OC(=O)CSCCN(CC)CC)[C@]2(C)[C@H](C)CC[C@]3(CCC(=O)[C@H]32)[C@@H](C)[C@@H]1O [TIAMULIN] | 25.2
19 | C=C[C@]1(C)C[C@@H](OC(=O)CSc2nc(N3CCC(N(C)C)CC3)c3ccsc3n2)[C@]2(C)[C@H](C)CC[C@]3(CCC(=O)[C@H]32)[C@@H](C)[C@@H]1O | 27.2
20 | C=C[C@]1(C)C[C@@H](OC(=O)CSc2nc(N/N=C/c3ccc(F)cc3)c3ccsc3n2)[C@]2(C)[C@H](C)CC[C@]3(CCC(=O)[C@H]32)[C@@H](C)[C@@H]1O | 20.2
21 | C=C[C@]1(C)C[C@@H](OC(=O)CSc2nccc(N3CCN(CC)CC3)n2)[C@]2(C)[C@H](C)CC[C@]3(CCC(=O)[C@H]32)[C@@H](C)[C@@H]1O | 28.6
22 | C=C[C@]1(C)C[C@@H](OC(=O)CSc2nc(N/N=C/c3ccc(OC)cc3)c3ccsc3n2)[C@]2(C)[C@H](C)CC[C@]3(CCC(=O)[C@H]32)[C@@H](C)[C@@H]1O | 18.8
23 | C=C[C@]1(C)C[C@@H](OC(=O)CSc2nc(N3CCOCC3)c3ccsc3n2)[C@]2(C)[C@H](C)CC[C@]3(CCC(=O)[C@H]32)[C@@H](C)[C@@H]1O | 21.6
24 | C=C[C@]1(C)C[C@@H](OC(=O)CSc2ncc(C)c(N3CCN(CC)CC3)n2)[C@]2(C)[C@H](C)CC[C@]3(CCC(=O)[C@H]32)[C@@H](C)[C@@H]1O | 26.6
25 | C=C[C@]1(C)C[C@@H](OC(=O)CSc2nc(N/N=C/c3ccc(C(F)(F)F)cc3)c3ccsc3n2)[C@]2(C)[C@H](C)CC[C@]3(CCC(=O)[C@H]32)[C@@H](C)[C@@H]1O | 22.2

What follows are molecules tested on Staphylococcus aureus (assay: Antibacterial activity against Staphylococcus aureus assessed as inhibition of bacterial growth incubated for 24 hrs by microbroth two-fold dilution method).
Assay type: functional

Row | Structure (SMILES) | MIC [µg/mL]
26 | C=C[C@]1(C)C[C@@H](OC(=O)CSc2nc(C)cc(N3CCN(CC)CC3)n2)[C@]2(C)[C@H](C)CC[C@]3(CCC(=O)[C@H]32)[C@@H](C)[C@@H]1O | 0.244 (≈ 0.408 µM)
27 | C=C[C@]1(C)C[C@@H](OC(=O)CSc2nc(N3CCCNCC3)c3ccsc3n2)[C@]2(C)[C@H](C)CC[C@]3(CCC(=O)[C@H]32)[C@@H](C)[C@@H]1O | 0.122 (≈ 0.195 µM)
28 | C=C[C@]1(C)C[C@@H](OC(=O)CSc2nc(NCCO)c3c(C)csc3n2)[C@]2(C)[C@H](C)CC[C@]3(CCC(=O)[C@H]32)[C@@H](C)[C@@H]1O | 0.122 (≈ 0.203 µM)
29 | C=C[C@]1(C)C[C@@H](OC(=O)CSc2nc(N/N=C/c3ccc(O)c(Br)c3)c3ccsc3n2)[C@]2(C)[C@H](C)CC[C@]3(CCC(=O)[C@H]32)[C@@H](C)[C@@H]1O | 3.91 (≈ 5.27 µM)
30 | C=C[C@]1(C)C[C@@H](OC(=O)CSCCN(CC)CC)[C@]2(C)[C@H](C)CC[C@]3(CCC(=O)[C@H]32)[C@@H](C)[C@@H]1O [TIAMULIN] | 0.488 (≈ 0.989 µM)
31 | C=C[C@]1(C)C[C@@H](OC(=O)CSc2nc(N3CCC(N(C)C)CC3)c3ccsc3n2)[C@]2(C)[C@H](C)CC[C@]3(CCC(=O)[C@H]32)[C@@H](C)[C@@H]1O | 0.244 (≈ 0.373 µM)
32 | C=C[C@]1(C)C[C@@H](OC(=O)CSc2nc(N/N=C/c3ccc(F)cc3)c3ccsc3n2)[C@]2(C)[C@H](C)CC[C@]3(CCC(=O)[C@H]32)[C@@H](C)[C@@H]1O | 7.81 (≈ 11.7 µM)
33 | C=C[C@]1(C)C[C@@H](OC(=O)CSc2nccc(N3CCN(CC)CC3)n2)[C@]2(C)[C@H](C)CC[C@]3(CCC(=O)[C@H]32)[C@@H](C)[C@@H]1O | 0.122 (≈ 0.209 µM)
34 | C=C[C@]1(C)C[C@@H](OC(=O)CSc2nc(N/N=C/c3ccc(OC)cc3)c3ccsc3n2)[C@]2(C)[C@H](C)CC[C@]3(CCC(=O)[C@H]32)[C@@H](C)[C@@H]1O | 7.81 (≈ 11.5 µM)
35 | C=C[C@]1(C)C[C@@H](OC(=O)CSc2nc(N3CCOCC3)c3ccsc3n2)[C@]2(C)[C@H](C)CC[C@]3(CCC(=O)[C@H]32)[C@@H](C)[C@@H]1O | 0.122 (≈ 0.199 µM)
36 | C=C[C@]1(C)C[C@@H](OC(=O)CSc2ncc(C)c(N3CCN(CC)CC3)n2)[C@]2(C)[C@H](C)CC[C@]3(CCC(=O)[C@H]32)[C@@H](C)[C@@H]1O | 0.244 (≈ 0.408 µM)
37 | C=C[C@]1(C)C[C@@H](OC(=O)CSc2nc(N/N=C/c3ccc(C(F)(F)F)cc3)c3ccsc3n2)[C@]2(C)[C@H](C)CC[C@]3(CCC(=O)[C@H]32)[C@@H](C)[C@@H]1O | 7.81 (≈ 10.9 µM)

What follows are molecules tested on Staphylococcus aureus (assay: Antibacterial activity against Methicillin-resistant Staphylococcus aureus BNCC 337371 assessed as inhibition of bacterial growth incubated for 24 hrs by microbroth two-fold dilution method).
Assay type: functional

Row | Structure (SMILES) | MIC [µg/mL]
38 | C=C[C@]1(C)C[C@@H](OC(=O)CSCCN(CC)CC)[C@]2(C)[C@H](C)CC[C@]3(CCC(=O)[C@H]32)[C@@H](C)[C@@H]1O [TIAMULIN] | 0.488 (≈ 0.989 µM)

Each molecule was assayed on Escherichia coli (assay: Antibacterial activity against Escherichia coli assessed as inhibition of bacterial growth incubated for 24 hrs by microbroth two-fold dilution method).
Assay type: functional

Row | Structure (SMILES) | MIC [µg/mL]
39 | C=C[C@]1(C)C[C@@H](OC(=O)CSc2nc(C)cc(N3CCN(CC)CC3)n2)[C@]2(C)[C@H](C)CC[C@]3(CCC(=O)[C@H]32)[C@@H](C)[C@@H]1O | 3.91 (≈ 6.52 µM)
40 | C=C[C@]1(C)C[C@@H](OC(=O)CSc2nc(N3CCCNCC3)c3ccsc3n2)[C@]2(C)[C@H](C)CC[C@]3(CCC(=O)[C@H]32)[C@@H](C)[C@@H]1O | 0.976 (≈ 1.56 µM)
41 | C=C[C@]1(C)C[C@@H](OC(=O)CSc2nc(NCCO)c3c(C)csc3n2)[C@]2(C)[C@H](C)CC[C@]3(CCC(=O)[C@H]32)[C@@H](C)[C@@H]1O | 0.977 (≈ 1.62 µM)
42 | C=C[C@]1(C)C[C@@H](OC(=O)CSc2nc(N/N=C/c3ccc(O)c(Br)c3)c3ccsc3n2)[C@]2(C)[C@H](C)CC[C@]3(CCC(=O)[C@H]32)[C@@H](C)[C@@H]1O | > 15.6
43 | C=C[C@]1(C)C[C@@H](OC(=O)CSCCN(CC)CC)[C@]2(C)[C@H](C)CC[C@]3(CCC(=O)[C@H]32)[C@@H](C)[C@@H]1O [TIAMULIN] | 15.6 (≈ 31.6 µM)
44 | C=C[C@]1(C)C[C@@H](OC(=O)CSc2nc(N3CCC(N(C)C)CC3)c3ccsc3n2)[C@]2(C)[C@H](C)CC[C@]3(CCC(=O)[C@H]32)[C@@H](C)[C@@H]1O | 3.91 (≈ 5.96 µM)
45 | C=C[C@]1(C)C[C@@H](OC(=O)CSc2nc(N/N=C/c3ccc(F)cc3)c3ccsc3n2)[C@]2(C)[C@H](C)CC[C@]3(CCC(=O)[C@H]32)[C@@H](C)[C@@H]1O | 15.6 (≈ 23.5 µM)
46 | C=C[C@]1(C)C[C@@H](OC(=O)CSc2nccc(N3CCN(CC)CC3)n2)[C@]2(C)[C@H](C)CC[C@]3(CCC(=O)[C@H]32)[C@@H](C)[C@@H]1O | 1.95 (≈ 3.34 µM)
47 | C=C[C@]1(C)C[C@@H](OC(=O)CSc2nc(N/N=C/c3ccc(OC)cc3)c3ccsc3n2)[C@]2(C)[C@H](C)CC[C@]3(CCC(=O)[C@H]32)[C@@H](C)[C@@H]1O | > 15.6
48 | C=C[C@]1(C)C[C@@H](OC(=O)CSc2nc(N3CCOCC3)c3ccsc3n2)[C@]2(C)[C@H](C)CC[C@]3(CCC(=O)[C@H]32)[C@@H](C)[C@@H]1O | 1.95 (≈ 3.18 µM)
49 | C=C[C@]1(C)C[C@@H](OC(=O)CSc2ncc(C)c(N3CCN(CC)CC3)n2)[C@]2(C)[C@H](C)CC[C@]3(CCC(=O)[C@H]32)[C@@H](C)[C@@H]1O | 3.91 (≈ 6.52 µM)
50 | C=C[C@]1(C)C[C@@H](OC(=O)CSc2nc(N/N=C/c3ccc(C(F)(F)F)cc3)c3ccsc3n2)[C@]2(C)[C@H](C)CC[C@]3(CCC(=O)[C@H]32)[C@@H](C)[C@@H]1O | > 15.6
